Experimental findings from patent US8247211B2, “Glycopeptide antibiotics” (American Cyanamid Company, priority 2001, dated 2012) are described below.

What all share (assay): In vitro antibacterial evaluation: minimum inhibitory concentration (MIC), broth dilution method
What all share (type): cell-based

One experiment relates to Enterococcus sp. Particulars: for MIC Enterococcus faecalis (ATCC 29212): strain ATCC 29212; for MIC Enterococcus faecalis (GC 4552): strain GC 4552. How it is done:
(§1) The minimum inhibitory concentration (MIC), the lowest concentration of the antibiotic which inhibits growth of the test organism, is determined by the broth dilution method using Muller-Hinton II […] (Baltimore Biological Laboratories) following the recommendations of the National Committee for Clinical Laboratory Standards [Methods for dilution antimicrobial susceptibility tests for bacteria that grow aerobically, approved standard M7-A2, National Committee for Clinical Laboratory Standards, Villanova, Pa].
(§2) An inoculum level of 5×10^5 CFU/mL, and a range of antibiotic concentrations (64-0.06 μg/mL) is used. […] The test organisms include a spectrum of Gram-positive bacteria comprised of Staphylococcus sp., Streptococcus sp. and Enterococcus sp. These organisms include recent clinical isolates that are resistant to methicillin, penicillin and/or vancomycin.

Another experiment deals with Escherichia coli. How it is done:
as §1, §2

The subject of the next experiment is Staphylococcus sp. Particulars: for MIC Coagulase Negative Staphylococcus (GC 4537): strain GC 4537; for MIC Coagulase Negative Staphylococcus (GC 4538): strain GC 4538; for MIC Coagulase Negative Staphylococcus (GC 4547): strain GC 4547. How it is done:
as §1, §2

[1] abbreviates: broth dilution, 18 hours at 35° C.
Setting [2] is: strain SMITH GC 4536, broth dilution, 18 hours at 35° C.
Where [3] appears, read: broth dilution, 5×10^5 CFU/mL, 18 hours at 35° C.
The mark [4] stands for this setting: 5×10^5 CFU/mL, 18 hours at 35° C.

Values after ≈ are worked out from the molar mass of the structure shown. Some results are limits rather than exact numbers.

On to `CCCCCC(=O)OCC1OC(Oc2ccc(CC3NC(=O)C(C(C)c4ccccc4)NC(=O)CNC(=O)C(CO)NC(=O)C(C(O)C4CNC(=N)N4C4OC(CO)C(O)C(O)C4O)NC(=O)C(C(O)C4CNC(=N)N4)NC3=O)cc2)C(O)C(O)C1OC1OC(CO)C(O)C(O)C1O` (stereo not drawn) [Example 95a, Cyclo[glycyl-β-methylphenylalanyl-O-(6-O-hexanoyl-4-O-hexopyranosylhexopyranosyl)-tyrosyl-3-(2-iminoimidazolidin-4-yl)seryl-3-(3-hexopyranosyl-2-iminoimidazolidin-4-yl)-serylseryl]], for which the “MIC Enterococcus faecalis (GC 2242)” value in the experiment on Enterococcus sp. (Enterococcus faecalis (GC 2242), broth dilution, 18 hours at 35° C.) worked out at 16 µg/mL (≈ 11.5 µM). Also, in the experiment on Enterococcus sp., the “MIC Enterococcus faecalis (ATCC 29212)” value was 32 µg/mL (≈ 23 µM) and the “MIC Enterococcus faecalis (GC 4552)” value worked out at 32 µg/mL (≈ 23 µM). In addition, the “MIC Enterococcus faecalis (GC 2242)” value in the experiment with Enterococcus sp. (strain GC 2242) worked out at 16 µg/mL (≈ 11.5 µM). In the experiment on Escherichia coli (strain GC 4559), the “MIC Escherichia coli (GC 4559)” value was over 64 µg/mL. In addition, in the experiment on Escherichia coli (strain GC 4560), the “MIC Escherichia coli (GC 4560)” value stood at 2 µg/mL (≈ 1.44 µM). In the experiment with Staphylococcus sp. (setting [1]), the “MIC Staphylococcus aureus (ATCC 29213)” value was found to be 4 µg/mL (≈ 2.87 µM), the “MIC Staphylococcus aureus (GC 1131)” value was found to be 4 µg/mL (≈ 2.87 µM), the “MIC Staphylococcus aureus (GC 4535)” value worked out at 8 µg/mL (≈ 5.74 µM) and the “MIC Staphylococcus aureus SMITH (GC 4536)” value was found to be 4 µg/mL (≈ 2.87 µM). In the experiment on Staphylococcus sp., the “MIC Coagulase Negative Staphylococcus (GC 4537)” value is 8 µg/mL (≈ 5.74 µM), the “MIC Coagulase Negative Staphylococcus (GC 4538)” value came to 4 µg/mL (≈ 2.87 µM) and the “MIC Coagulase Negative Staphylococcus (GC 4547)” value turned out to be 4 µg/mL (≈ 2.87 µM). Also, the “MIC Staphylococcus aureus-SMITH (GC 4536)” value with Staphylococcus sp. (setting [2]) came out at 4 µg/mL (≈ 2.87 µM).
In the case of `CC(c1ccccc1)C1NC(=O)CNC(=O)C(CO)NC(=O)C(C(O)C2CNC(=N)N2C2OC(CO)C(O)C(O)C2O)NC(=O)C(C(O)C2CNC(=N)N2)NC(=O)C(Cc2ccc(OC3OC(CO)C(OC4OC(COC(=O)CCC5CCCC5)C(O)C(O)C4O)C(O)C3O)cc2)NC1=O` (stereo not drawn) [Example 100c, Cyclo[glycyl-β-methylphenylalanyl-O-[4-O-[6-O-(3-cyclopentylpropanoyl)hexopyranosyl]-hexopyranosyl]tyrosyl-3-(2-iminoimidazolidin-4-yl)seryl-3-(3-hexopyranosyl-2-iminoimidazolidin-4-yl)serylseryl]], in the experiment on Enterococcus sp. (setting [3]), the “MIC Enterococccus faecalis (ATCC 29212)” value turned out to be 4 µg/mL (≈ 2.82 µM), the “MIC Enterococccus faecalis (GC 4552)” value amounted to 4 µg/mL (≈ 2.82 µM) and the “MIC Enterococcus faecalis (GC 2242)” value came out at 2 µg/mL (≈ 1.41 µM). In the experiment with Escherichia coli (setting [4]), the “MIC Escherichia coli (GC 4559)” value amounted to 32 µg/mL (≈ 22.5 µM) and the “MIC Escherichia coli (GC 4560)” value came to 0.5 µg/mL (≈ 0.352 µM). For the same compound, the “MIC Staphylococcus aureus (ATCC 29213)” value against Staphylococcus sp. (strain ATCC 29213) turned out to be 1 µg/mL (≈ 0.704 µM). Also, the “MIC Staphylococcus aureus (GC 1131)” value against Staphylococcus sp. (strain GC 1131) was 1 µg/mL (≈ 0.704 µM). Besides, the “MIC Staphylococcus aureus (GC 4535)” value in the experiment with Staphylococcus sp. (strain GC 4535) turned out to be 1 µg/mL (≈ 0.704 µM). Moreover, the “MIC Staphylococcus aureus-SMITH (GC 4536)” value against Staphylococcus sp. (strain GC 4536) stood at 1 µg/mL (≈ 0.704 µM). Further, in the experiment on Staphylococcus sp., the “MIC Coagulase Negative Staphylococcus (GC 4537)” value was found to be 1 µg/mL (≈ 0.704 µM), the “MIC Coagulase Negative Staphylococcus (GC 4538)” value is 1 µg/mL (≈ 0.704 µM) and the “MIC Coagulase Negative Staphylococcus (GC 4547)” value came out at 1 µg/mL (≈ 0.704 µM). For the same compound, in the experiment on Staphylococcus sp. (setting [1]), the “MIC Coagulase Negative Staphylococcus (GC 4537)” value is 1 µg/mL (≈ 0.704 µM), the “MIC Coagulase Negative Staphylococcus (GC 4538)” value was found to be 1 µg/mL (≈ 0.704 µM) and the “MIC Coagulase Negative Staphylococcus (GC 4547)” value came out at 1 µg/mL (≈ 0.704 µM). Moreover, the “MIC Staphylococcus aureus-SMITH (GC 4536)” value in the experiment with Staphylococcus sp. (setting [2]) came to 1 µg/mL (≈ 0.704 µM).
As for `CC(c1ccccc1)C1NC(=O)CNC(=O)C(CO)NC(=O)C(C(O)C2CNC(=N)N2C2OC(CO)C(O)C(O)C2O)NC(=O)C(C(O)C2CNC(=N)N2)NC(=O)C(Cc2ccc(OC3OC(COC(=O)Cc4ccccc4)C(OC4OC(CO)C(O)C(O)C4O)C(O)C3O)cc2)NC1=O` (stereo not drawn) [Example 98b], in the experiment on Enterococcus sp., the “MIC Enterococcus faecalis (ATCC 29212)” value was determined as 64 µg/mL (≈ 45.3 µM). In addition, in the experiment on Enterococcus sp. (strain GC 2242), the “MIC Enterococcus faecalis (GC 2242)” value amounted to 64 µg/mL (≈ 45.3 µM). Moreover, in the experiment with Escherichia coli (strain GC 4560), the “MIC Escherichia coli (GC 4560)” value came to 2 µg/mL (≈ 1.42 µM). In addition, in the experiment with Staphylococcus sp. (setting [1]), the “MIC Staphylococcus aureus (ATCC 29213)” value came to 16 µg/mL (≈ 11.3 µM), the “MIC Staphylococcus aureus (GC 1131)” value was found to be 16 µg/mL (≈ 11.3 µM), the “MIC Staphylococcus aureus (GC 4535)” value came out at 16 µg/mL (≈ 11.3 µM) and the “MIC Staphylococcus aureus SMITH (GC 4536)” value turned out to be 8 µg/mL (≈ 5.66 µM). In the experiment on Staphylococcus sp. (setting [1]), the “MIC Coagulase Negative Staphylococcus (GC 4537)” value stood at 16 µg/mL (≈ 11.3 µM), the “MIC Coagulase Negative Staphylococcus (GC 4538)” value amounted to 8 µg/mL (≈ 5.66 µM) and the “MIC Coagulase Negative Staphylococcus (GC 4547)” value turned out to be 8 µg/mL (≈ 5.66 µM). For the same compound, in the experiment with Staphylococcus sp., the “MIC Coagulase Negative Staphylococcus (GC 4537)” value amounted to 16 µg/mL (≈ 11.3 µM), the “MIC Coagulase Negative Staphylococcus (GC 4538)” value came out at 8 µg/mL (≈ 5.66 µM) and the “MIC Coagulase Negative Staphylococcus (GC 4547)” value amounted to 8 µg/mL (≈ 5.66 µM). The “MIC Staphylococcus aureus-SMITH (GC 4536)” value in the experiment with Staphylococcus sp. (setting [2]) turned out to be 8 µg/mL (≈ 5.66 µM).
Take `CCCCCCC(=O)OCC1OC(N2C(=N)NCC2C(O)C2NC(=O)C(C(O)C3CNC(=N)N3)NC(=O)C(Cc3ccc(OC4OC(CO)C(OC5OC(CO)C(O)C(O)C5O)C(O)C4O)cc3)NC(=O)C(C(C)c3ccccc3)NC(=O)CNC(=O)C(CO)NC2=O)C(O)C(O)C1O` (stereo not drawn) [Example 97]: in the experiment on Enterococcus sp., the “MIC Enterococcus faecalis (ATCC 29212)” value was over 64 µg/mL and the “MIC Enterococcus faecalis (GC 4552)” value is over 64 µg/mL. Moreover, in the experiment on Enterococcus sp. (strain GC 2242), the “MIC Enterococcus faecalis (GC 2242)” value is over 64 µg/mL. For the same compound, in the experiment with Escherichia coli (strain GC 4559), the “MIC Escherichia coli (GC 4559)” value was over 64 µg/mL. For the same compound, in the experiment on Escherichia coli (strain GC 4560), the “MIC Escherichia coli (GC 4560)” value came out at 2 µg/mL (≈ 1.42 µM). In the experiment on Staphylococcus sp. (setting [1]), the “MIC Staphylococcus aureus (ATCC 29213)” value is over 64 µg/mL, the “MIC Staphylococcus aureus (GC 1131)” value is over 64 µg/mL, the “MIC Staphylococcus aureus (GC 4535)” value was over 64 µg/mL and the “MIC Staphylococcus aureus SMITH (GC 4536)” value is over 64 µg/mL. In the experiment on Staphylococcus sp. (setting [1]), the “MIC Coagulase Negative Staphylococcus (GC 4537)” value was over 64 µg/mL, the “MIC Coagulase Negative Staphylococcus (GC 4538)” value is over 64 µg/mL and the “MIC Coagulase Negative Staphylococcus (GC 4547)” value was over 64 µg/mL. Also, in the experiment on Staphylococcus sp., the “MIC Coagulase Negative Staphylococcus (GC 4537)” value is over 64 µg/mL, the “MIC Coagulase Negative Staphylococcus (GC 4538)” value was over 64 µg/mL and the “MIC Coagulase Negative Staphylococcus (GC 4547)” value was over 64 µg/mL. In addition, the “MIC Staphylococcus aureus-SMITH (GC 4536)” value against Staphylococcus sp. (setting [2]) is over 64 µg/mL.
Turning to `CC(c1ccccc1)C1NC(=O)CNC(=O)C(CO)NC(=O)C(C(O)C2CNC(=N)N2C2OC(CO)C(O)C(O)C2O)NC(=O)C(C(O)C2CNC(=N)N2)NC(=O)C(Cc2ccc(OC3OC(COC(=O)CCC4CCCC4)C(OC4OC(CO)C(O)C(O)C4O)C(O)C3O)cc2)NC1=O` (stereo not drawn) [Example 100b, Cyclo[glycyl-β-methylphenylalanyl-O-[6-O-(3-cyclopentylpropanoyl)-4-O-hexopyranosyl-hexopyranosyl]tyrosyl-3-(2-iminoimidazolidin-4-yl)seryl-3-(3-hexopyranosyl-2-iminoimidazolidin-4-yl)serylseryl]], in the experiment on Enterococcus sp. (setting [3]), the “MIC Enterococccus faecalis (ATCC 29212)” value is 8 µg/mL (≈ 5.64 µM), the “MIC Enterococccus faecalis (GC 4552)” value was determined as 8 µg/mL (≈ 5.64 µM) and the “MIC Enterococcus faecalis (GC 2242)” value came out at 8 µg/mL (≈ 5.64 µM). Also, in the experiment with Escherichia coli (setting [4]), the “MIC Escherichia coli (GC 4560)” value came to 0.5 µg/mL (≈ 0.352 µM). Further, the “MIC Staphylococcus aureus (ATCC 29213)” value in the experiment with Staphylococcus sp. (strain ATCC 29213) stood at 2 µg/mL (≈ 1.41 µM). In the experiment with Staphylococcus sp. (strain GC 1131), the “MIC Staphylococcus aureus (GC 1131)” value worked out at 2 µg/mL (≈ 1.41 µM). The “MIC Staphylococcus aureus (GC 4535)” value in the experiment with Staphylococcus sp. (strain GC 4535) is 2 µg/mL (≈ 1.41 µM). Moreover, the “MIC Staphylococcus aureus-SMITH (GC 4536)” value against Staphylococcus sp. (strain GC 4536) worked out at 2 µg/mL (≈ 1.41 µM). In the experiment on Staphylococcus sp., the “MIC Coagulase Negative Staphylococcus (GC 4537)” value was determined as 2 µg/mL (≈ 1.41 µM), the “MIC Coagulase Negative Staphylococcus (GC 4538)” value was 1 µg/mL (≈ 0.704 µM) and the “MIC Coagulase Negative Staphylococcus (GC 4547)” value worked out at 1 µg/mL (≈ 0.704 µM). For the same compound, in the experiment on Staphylococcus sp. (setting [1]), the “MIC Coagulase Negative Staphylococcus (GC 4537)” value worked out at 2 µg/mL (≈ 1.41 µM), the “MIC Coagulase Negative Staphylococcus (GC 4538)” value was determined as 1 µg/mL (≈ 0.704 µM) and the “MIC Coagulase Negative Staphylococcus (GC 4547)” value came out at 1 µg/mL (≈ 0.704 µM). The “MIC Staphylococcus aureus-SMITH (GC 4536)” value against Staphylococcus sp. (setting [2]) is 2 µg/mL (≈ 1.41 µM).
